The results in this text go back to patent US6472141B2, “Kinase assays using polycations” (Caliper Technologies Corp., priority 1999, dated 2002).

Format in all cases: binding
One data set deals with DNA target 182. The data set is described as follows: PNA/DNA hybridization detected by fluorescence polarization, non-complementary target. From the text: (§1) A fluorescein-labeled peptide nucleic acid molecule 202 was used in hybridization experiments with the DNA targets 192 and 182. PNAs are generally commercially available from the Applied Biosystems Division of the Perkin-Elmer Corporation (Foster City, Calif.). The sequence of these molecules is illustrated below. In the case of the PNA molecule, the given sequence illustrates the analogous sequence of a DNA molecule. The sequences of the three molecules are as follows:
(§2) DNA sequence 192 contains 13 bases (shown in bold) that are fully complementary to the PNA probe 202, whereas 182 is a non-complementary oligonucleotide.
(§3) A solution containing 1 μM of PNA 202 in 50 mM HEPES pH 7.5 was mixed with either 5 μM of 192 or 5 μM of 182. The mixtures were left at room temperature for about 10 min. and then placed in the cuvette of a fluorimeter equipped to measure fluorescence polarization. The measurements were carried out using 490 nm for excitation and 520 nm for detection of fluorescence emission. The fluorescence polarization values were recorded first in the absence and then in the presence of poly-L-Lysine hydrobromide, having a molecular weight of approximately 70-100 kD (Sigma Chemicals). The poly-L-Lysine was added from a stock solution in water (approx. 440 μM). The final concentrations of the poly Lysine were 4.4 and 8.8 μM.
On the technique in general: Fluorescence polarisation rises when a labelled molecule tumbles more slowly, as on binding a larger partner.

The next data set deals with DNA target 192. The data set is described as follows: PNA/DNA hybridization detected by fluorescence polarization, complementary target.
Text: as §1, §2, §3

The next data set relates to DNA 244. In words: Single nucleotide substitution detection by fluorescence polarization of PNA probe. The following applies: 250 nM probe, about 3 μM poly-L-Lysine, 50 mM HEPES pH 7.5, 100 mM NaCl. From the text:
The assay methods were employed to detect differential hybridization of a nucleic acid probe to a perfectly complementary target sequence and a target sequence incorporating a single base variation, e.g., a single nucleotide polymorphism (SNP). In particular, a fluoresceinated PNA probe having a sequence complementary to a subsequence of a target sequence was used to probe the target including the subsequence and a target in which an interior base of the subsequence was substituted for a different base.
The 5′ to 3′ sequences of the PNA probe (PNA 7637)(SEQ ID NO:4), the target DNA sequence (DNA 244) (SEQ. ID NO.5) and single base mismatch target DNA sequence (DNA 245) (SEQ. ID NO.6) were as follows:
The PNA probe 7637 was used at a final concentration of 250 nM, in a reaction volume of 400 μl. The buffer used was 50 mM HEPES pH 7.5, 100 mM NaCl. The solution also contained poly-L-Lysine at about 3 μM. One μl aliquots of the DNA targets 244 and 245 were added iteratively to the PNA solution and the fluorescence polarization (excitation 490, emission 520 nm) was recorded after the addition of each aliquot. The data from this experiment is illustrated in FIG. 22. […] As can also be seen, hybridization plateaued at approximately a […] of target sequence in the perfectly complementary example.

{Fl-O} = fluorescein attached through an O linker; {Fluorescein} = fluorescein label

As for “5′Fl-O-GTCAAATACTCCA (all peptide nucleic acid (PNA), 5' {Fl-O}) [compound 202, ID NO.1]”, the polarization value with DNA target 182 (1 μM 202 with 5 μM non-complementary 182, without poly-L-Lysine) was 86 mP; in the data set with DNA target 182 (202 with non-complementary 182, in the presence of poly-L-Lysine) it was 140 mnP; in the data set with DNA target 192 (202 hybrid with complementary 192, in the absence of poly-L-Lysine), “about 100 mP”; in the data set with DNA target 192 (202 hybrid with complementary 192, in the presence of poly-L-Lysine), 229 mP.

Regarding “Fluorescein-CCTGTAGCA (all peptide nucleic acid (PNA), 5' {Fluorescein}) [PNA probe 7637]”, the “fluorescence polarization, perfectly complementary target vs single base mismatch target (DNA 245)” value with DNA 244 was “substantially higher levels of fluorescence polarization”.
